Source: ChEMBL document CHEMBL4145689, “Tailoring the Substitution Pattern on 1,3,5-Triazine for Targeting Cyclooxygenase-2: Discovery and Structure-Activity Relationship of Triazine-4-Aminophenylmorpholin-3-one Hybrids that Reverse Algesia and Inflammation in Swiss Albino Mice” (J Med Chem, 2018)
Active and inactive are the calls of the source. No cut-off for these calls is given here.

Key:
[1] = tested on: Mus musculus; assay: Analgesic activity in Swiss albino mouse assessed as inhibition of acetic acid-induced writhings at 5 mg/kg, ip measured 30 mins post acetic acid challenge; type: functional; conditions: 0.5 h
[2] = tested on: Mus musculus; assay: Anti-inflammatory activity in Swiss albino mouse model of carrageenan-induced-paw edema assessed as inhibition of paw edema at 5 mg/kg, ip after 3 hrs; type: functional
[3] = biological target: T1, Prostaglandin G/H synthase 1 (Ovis aries, UniProt P05979); assay: Inhibition of ovine COX1 pre-incubated for 10 mins before arachidonic acid addition and measured after 2 mins by EIA method
T1 sequence (P05979 whole entry): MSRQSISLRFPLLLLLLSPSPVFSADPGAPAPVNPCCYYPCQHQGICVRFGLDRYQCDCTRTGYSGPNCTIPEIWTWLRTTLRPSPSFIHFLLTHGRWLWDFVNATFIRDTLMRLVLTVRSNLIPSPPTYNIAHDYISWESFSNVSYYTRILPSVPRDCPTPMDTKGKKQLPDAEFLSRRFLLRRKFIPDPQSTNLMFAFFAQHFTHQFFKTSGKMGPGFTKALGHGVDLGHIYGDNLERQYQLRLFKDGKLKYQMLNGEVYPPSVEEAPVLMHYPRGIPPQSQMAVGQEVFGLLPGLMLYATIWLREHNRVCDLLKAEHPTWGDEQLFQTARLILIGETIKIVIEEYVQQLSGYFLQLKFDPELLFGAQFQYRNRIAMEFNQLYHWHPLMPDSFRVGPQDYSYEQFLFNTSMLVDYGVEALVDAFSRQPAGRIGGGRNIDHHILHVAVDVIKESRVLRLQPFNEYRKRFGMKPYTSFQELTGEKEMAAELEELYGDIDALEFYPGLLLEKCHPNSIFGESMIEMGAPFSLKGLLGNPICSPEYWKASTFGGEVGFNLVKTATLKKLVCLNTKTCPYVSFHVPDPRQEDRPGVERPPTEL

[4] = biological target: Prostaglandin G/H synthase 1 (Homo sapiens, UniProt P23219); assay: Inhibition of COX1 in human whole blood assessed as A23187-stimulated TxB2 production at 1 uM pre-incubated for 60 mins before A23187 addition and measured after 30 mins by ELISA (reference value: 2 ng/ml); conditions: 0.5 h
[5] = tested on: Mus musculus; assay: Analgesic activity in Swiss albino mouse assessed as inhibition of acetic acid-induced writhings at 10 mg/kg, ip measured 30 mins post acetic acid challenge; type: functional; conditions: 0.5 h
[6] = tested on: Mus musculus; assay: Acute toxicity in Swiss albino mouse assessed as induction of behavioural impairment at 50 to 2000 mg/kg, po measured over 14 days post dose; type: organism-based; conditions: in vivo, 336 h
[7] = tested on: Mus musculus; assay: Acute toxicity in Swiss albino mouse assessed as induction of hepatic lesions at 50 to 2000 mg/kg, po measured over 14 days post dose by H and E staining based microscopy; type: organism-based; conditions: in vivo, 336 h
[8] = tested on: Mus musculus; assay: Acute toxicity in Swiss albino mouse assessed as induction of congestion in renal tissue at 50 to 2000 mg/kg, po measured over 14 days post dose by H and E staining based microscopy; type: organism-based; conditions: in vivo, 336 h
[9] = tested on: Mus musculus; assay: Analgesic activity in […] pre-treated Swiss albino mouse assessed as inhibition of acetic acid-induced writhings at 5 mg/kg, ip measured 30 mins post acetic acid challenge; type: functional, organism-based
[10] = tested on: Mus musculus; assay: Acute toxicity in Swiss albino mouse assessed as induction of renal lesions at 50 to 2000 mg/kg, po measured over 14 days post dose by H and E staining based microscopy; type: organism-based; conditions: in vivo, 336 h
[11] = tested on: Mus musculus; assay: Acute toxicity in Swiss albino mouse assessed as induction of myocardial lesions at 50 to 2000 mg/kg, po measured over 14 days post dose by H and E staining based microscopy; type: organism-based; conditions: in vivo, 336 h
[12] = tested on: Mus musculus; assay: Acute toxicity in Swiss albino mouse assessed as induction of increase in capsular space at 50 to 2000 mg/kg, po measured over 14 days post dose by H and E staining based microscopy; type: organism-based; conditions: in vivo, 336 h
[13] = tested on: Mus musculus; assay: Analgesic activity in ip dosed Swiss albino mouse assessed as inhibition of acetic acid-induced writhings measured 30 mins post acetic acid challenge; type: functional; conditions: 0.5 h
[14] = biological target: T2, Prostaglandin G/H synthase 2 (Homo sapiens) (UniProt P35354); conditions: 10 uM
T2 sequence (whole entry): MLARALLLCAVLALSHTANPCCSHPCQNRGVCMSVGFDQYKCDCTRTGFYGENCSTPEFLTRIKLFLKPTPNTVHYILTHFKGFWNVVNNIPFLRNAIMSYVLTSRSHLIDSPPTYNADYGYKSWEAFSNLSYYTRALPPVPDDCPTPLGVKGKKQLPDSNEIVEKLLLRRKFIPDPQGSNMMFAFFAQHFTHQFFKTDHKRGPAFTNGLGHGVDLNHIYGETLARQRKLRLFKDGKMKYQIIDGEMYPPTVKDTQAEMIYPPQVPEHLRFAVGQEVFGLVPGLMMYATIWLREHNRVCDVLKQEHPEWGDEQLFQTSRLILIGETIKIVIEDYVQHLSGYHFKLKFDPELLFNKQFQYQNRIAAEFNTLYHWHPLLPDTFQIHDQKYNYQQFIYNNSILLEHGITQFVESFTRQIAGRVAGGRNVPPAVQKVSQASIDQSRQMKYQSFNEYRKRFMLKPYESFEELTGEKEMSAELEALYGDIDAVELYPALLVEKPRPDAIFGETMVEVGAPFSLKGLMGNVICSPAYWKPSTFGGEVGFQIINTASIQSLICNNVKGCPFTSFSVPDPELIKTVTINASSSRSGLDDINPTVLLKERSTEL

[15] = biological target: T3, Polyunsaturated fatty acid 5-lipoxygenase (Homo sapiens, UniProt P09917); assay: Inhibition of 5-LOX (unknown origin)
T3 sequence (P09917 whole entry): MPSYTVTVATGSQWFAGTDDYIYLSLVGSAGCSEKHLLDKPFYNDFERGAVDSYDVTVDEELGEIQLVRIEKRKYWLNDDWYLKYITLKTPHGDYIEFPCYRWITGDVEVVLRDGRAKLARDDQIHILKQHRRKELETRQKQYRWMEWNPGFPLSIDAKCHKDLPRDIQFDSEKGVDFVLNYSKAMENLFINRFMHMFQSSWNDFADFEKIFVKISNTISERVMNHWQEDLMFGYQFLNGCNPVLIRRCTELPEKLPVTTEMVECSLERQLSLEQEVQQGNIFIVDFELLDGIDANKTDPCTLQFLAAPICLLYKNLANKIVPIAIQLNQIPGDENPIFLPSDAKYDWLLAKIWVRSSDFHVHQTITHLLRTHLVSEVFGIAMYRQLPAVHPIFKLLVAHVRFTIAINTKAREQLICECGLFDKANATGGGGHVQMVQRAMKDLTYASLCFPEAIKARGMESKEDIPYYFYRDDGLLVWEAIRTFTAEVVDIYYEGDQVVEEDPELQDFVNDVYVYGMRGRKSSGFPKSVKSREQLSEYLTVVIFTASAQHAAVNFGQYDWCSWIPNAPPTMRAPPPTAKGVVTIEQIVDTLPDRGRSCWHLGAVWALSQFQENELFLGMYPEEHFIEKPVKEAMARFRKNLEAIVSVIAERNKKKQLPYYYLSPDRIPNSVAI

[16] = biological target: T2, Prostaglandin G/H synthase 2 (Homo sapiens)
Description: Binding affinity to human COX2 assessed as binding constant by ITC

[17] = tested on: Mus musculus; assay: Acute toxicity in Swiss albino mouse assessed as induction of mesangium shrinkage at 50 to 2000 mg/kg, po measured over 14 days post dose by H and E staining based microscopy; type: organism-based; conditions: in vivo, 336 h
[18] = tested on: Mus musculus; assay: Analgesic activity in substance P pre-treated Swiss albino mouse assessed as inhibition of acetic acid-induced writhings at 5 mg/kg, ip measured 30 mins post acetic acid challenge; type: functional, organism-based
[19] = tested on: Mus musculus; assay: Acute toxicity in Swiss albino mouse assessed as induction of mortality at 50 to 2000 mg/kg, po measured over 14 days post dose; type: organism-based; conditions: in vivo, 336 h
[20] = tested on: Mus musculus; assay: Anti-inflammatory activity in Swiss albino mouse model of carrageenan-induced-paw edema assessed as inhibition of paw edema at 10 mg/kg, ip after 3 hrs; type: functional

Chain of Prostaglandin G/H synthase 1 (Homo sapiens, UniProt P23219) (P23219 whole entry): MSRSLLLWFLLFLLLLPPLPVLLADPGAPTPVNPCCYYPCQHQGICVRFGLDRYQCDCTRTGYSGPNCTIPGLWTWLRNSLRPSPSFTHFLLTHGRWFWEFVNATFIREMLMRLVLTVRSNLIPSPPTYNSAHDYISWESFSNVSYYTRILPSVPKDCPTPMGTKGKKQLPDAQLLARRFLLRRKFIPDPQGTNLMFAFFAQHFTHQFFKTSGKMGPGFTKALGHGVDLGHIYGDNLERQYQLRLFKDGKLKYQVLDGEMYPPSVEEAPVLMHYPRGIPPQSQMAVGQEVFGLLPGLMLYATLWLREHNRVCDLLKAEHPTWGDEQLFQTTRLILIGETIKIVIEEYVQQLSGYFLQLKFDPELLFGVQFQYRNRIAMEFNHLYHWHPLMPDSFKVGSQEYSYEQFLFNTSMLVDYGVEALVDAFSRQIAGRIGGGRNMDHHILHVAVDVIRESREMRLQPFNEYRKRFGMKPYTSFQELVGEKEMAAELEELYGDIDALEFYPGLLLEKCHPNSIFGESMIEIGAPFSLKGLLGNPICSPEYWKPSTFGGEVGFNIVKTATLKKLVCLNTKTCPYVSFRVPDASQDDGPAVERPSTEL

SMILES	inhibition in vivo at 5 mg/kg [1] [%]	IC50 [3] [µM]	inhibition in vivo at 10 mg/kg [5] [%]	other results
Cc1ccc(-c2cc(C(F)(F)F)nn2-c2ccc(S(N)(=O)=O)cc2)cc1 [CELECOXIB]	62			inhibition in vivo at 5 mg/kg [2]: 33%
COC(=O)C(N)Cc1ccc(Oc2nc(Cl)nc(Nc3ccc(N4CCOCC4=O)cc3)n2)cc1 (configuration not stated)		> 10		
O=C1COCCN1c1ccc(Nc2nc(Cl)nc(OCCCl)n2)cc1		> 10		
O=C(NCCOc1nc(Cl)nc(Nc2ccc(N3CCOCC3=O)cc2)n1)c1ccccc1F		> 10		
O=C1COCCN1c1ccc(Nc2nc(Cl)nc(Cl)n2)cc1		> 10		
O=C1COCCN1c1ccc(Nc2nc(Nc3ccc(Cl)cc3)nc(N3CCOCC3)n2)cc1		5		
[N-]=[N+]=NCCOc1nc(Cl)nc(Nc2ccc(N3CCOCC3=O)cc2)n1		> 10		
O=C1COCCN1c1ccc(Nc2nc(Cl)nc(Nc3ccc(O)cc3)n2)cc1	56	10	68	Activity [4]: 1.64 ng/mL
O=C1COCCN1c1ccc(Nc2nc(Cl)nc(NCc3ccccc3)n2)cc1		> 10		
COc1ccc(Nc2nc(Cl)nc(Nc3ccc(N4CCOCC4=O)cc3)n2)cc1	47	> 10	79	
Nc1nc(Cl)nc(Nc2ccc(N3CCOCC3=O)cc2)n1	67	> 10	74	Activity [4]: 1.68 ng/mL
NCCOc1nc(Cl)nc(Nc2ccc(N3CCOCC3=O)cc2)n1		> 10		
O=C(NCCOc1nc(Cl)nc(Nc2ccc(N3CCOCC3=O)cc2)n1)c1ccc(Cl)s1		> 10		
O=C1COCCN1c1ccc(Nc2nc(Cl)nc(Nc3ccc(Br)cc3)n2)cc1		50		
O=C1COCCN1c1ccc(Nc2nc(Cl)nc(N3CCCC3)n2)cc1	87	10	93	Activity [6]: Non-Toxic; Activity [7]: Non-Toxic; Activity [8]: Toxic; inhibition [9]: Active; Activity [10]: Non-Toxic; Activity [11]: Non-Toxic; Activity [4]: 1.9 ng/mL; Activity [12]: Toxic; ED50 [13]: 2.2 mg/kg; Ka [14]: 2.54 ×10⁵ /M; inhibition in vivo at 5 mg/kg [2]: 38%; IC50 [15]: > 10 µM; Ka [16]: 5.37 ×10⁵ /M; Activity [17]: Toxic; Activity [18]: inactive; Activity [19]: Non-Toxic
O=C(NCCOc1nc(Cl)nc(Nc2ccc(N3CCOCC3=O)cc2)n1)C1CCCN1C(=O)OCc1ccccc1 (configuration not stated)		> 10		
COc1ccc2c(c1)c(CC(=O)O)c(C)n2C(=O)c1ccc(Cl)cc1 [INDOMETHACIN]			63	inhibition in vivo at 10 mg/kg [20]: 30%
O=C1COCCN1c1ccc(Nc2nc(Cl)nc(Nc3ccccc3)n2)cc1	76	> 10	83	Activity [4]: 1.7 ng/mL
Cc1ccc(Nc2nc(Cl)nc(Nc3ccc(N4CCOCC4=O)cc3)n2)cc1		> 10		
Cc1ccc(S(=O)(=O)NCCOc2nc(Cl)nc(Nc3ccc(N4CCOCC4=O)cc3)n2)cc1		> 10		
O=C1COCCN1c1ccc(Nc2nc(Cl)nc(N3CCOCC3)n2)cc1		> 10		
O=C1COCCN1c1ccc(Nc2nc(Cl)nc(N3CCN(c4ccccc4)CC3)n2)cc1		> 10		
O=C1COCCN1c1ccc(Nc2nc(Cl)nc(NC3CCCCC3)n2)cc1	56	> 10	81	
O=C1COCCN1c1ccc(Nc2nc(Cl)nc(Nc3ccc(Cl)cc3)n2)cc1	79	> 10	90.2	Activity [4]: 1.85 ng/mL; ED50 [13]: 1.9 mg/kg; inhibition in vivo at 5 mg/kg [2]: 28%
